Counter-ions that a name gives are not always drawn. Like-named read-outs stand apart in the source and are kept apart here.
Columns and labels:
[1] = tested on: AMARE; experiment: Example IV: postemergence foliar-applied herbicidal mixtures, weed control in cereal crops in the greenhouse, AMARE; type: in vivo, Amaranthus retroflexus (redroot pigweed); conditions: alone, 20-22 days
Description: (§1) Seeds of the desired test plant species were planted in Sun Gro MetroMix 306 planting mixture, which typically has a pH of 6.0 to 6.8 and an organic matter content of about 30 percent, in plastic pots with a surface area of 103.2 square centimeters (cm^2). […] The plants were grown for 7-36 days in a greenhouse with an approximate 14 hour photoperiod which was maintained at about 18° C. during the day and 17° C. during the night.
(§2) Spray solutions of the second cereal herbicide and experimental compound mixtures were prepared by adding the stock solutions to the appropriate amount of dilution solution to form 12 mL spray solution with active ingredients in two- and three-way combinations.

[2] = tested on: TRFRE; experiment: Example V: postemergence herbicidal activity of mixtures in forage crops, TRFRE; type: in vivo, Trifolium repens (white clover); conditions: alone, foliar, approximately 21 days
Description: (§3) Seeds or root cuttings of the desired test plant species were planted in Sun Gro MetroMix® 306 planting mixture, which typically has a pH of 6.0 to 6.8 and an organic matter content of about 30 percent, in plastic pots with a surface area of 126.6 square centimeters (cm^2). […] The plants were grown for 14-60 days in a greenhouse with an approximate 14 hour photoperiod which was maintained at approximately 28° C. during the day and 24° C. during the night.
(§4) Spray solutions of the second herbicide or experimental compound mixtures were prepared by adding the stock solutions to the appropriate amount of dilution solution to form 12 mL spray solution with active ingredients in two-way combinations.

[3] = tested on: SONAR; experiment: Example V: postemergence herbicidal activity of mixtures in forage crops, SONAR; type: in vivo, Sonchus arvensis (field sowthistle); conditions: alone, foliar, approximately 21 days
Description: as §3, §4

[4] = tested on: CENMA; experiment: Example V: postemergence herbicidal activity of mixtures in forage crops, CENMA; type: in vivo, Centaurea maculosa (spotted knapweed); conditions: alone, foliar, approximately 21 days
Description: as §3, §4

[5] = tested on: CIRAR; experiment: Example V: postemergence herbicidal activity of mixtures in forage crops, CIRAR; type: in vivo, Cirsium arvense (Canada thistle); conditions: alone, foliar, approximately 21 days
Description: as §3, §4

[6] = tested on: SOOSS; experiment: Example V: postemergence herbicidal activity of mixtures in forage crops, SOOSS; type: in vivo, Solidago L. spec. (goldenrod); conditions: alone, foliar, approximately 21 days
Description: as §3, §4

[7] = tested on: ECHCG; experiment: Example II: in-water applied herbicidal mixtures, transplanted paddy rice, ECHCG; type: in vivo, Echinochloa crus-galli (barnyardgrass)
Description: (§5) The prepared mud was dispensed in 365 mL aliquots into 16-ounce (oz.) non-perforated plastic pots with a surface area of 86.59 square centimeters (cm^2) leaving a headspace of 3 centimeters (cm) in each pot Mud was allowed to dry overnight prior to planting or transplanting. Rice seeds were planted in Sun Gro MetroMix® 306 planting mixture, which typically has a pH of 6.0 to 6.8 and an organic matter content of about 30 percent, in plastic plug trays. Seedlings at the second or third leaf stage of growth were transplanted into 840 mL of mud contained in 32-oz. non-perforated plastic pots with a surface area of 86.59 cm^2 4 days prior to herbicide application. […] Nutrients were added as Osmocote® (19:6:12, N:P:K^+ minor nutrients) at 2 g per 16-oz. pot and 4 g per 32-oz. pot.
(§6) Applications were made by injecting with a pipetter appropriate amounts of the application solutions, individually and sequentially, into the aqueous layer of the paddy. Control plants were treated in the same manner with the solvent blank. Applications were made so that all treated plant material received the same concentrations of acetone and crop oil concentrate.

[8] = tested on: ECHCO; experiment: Example I: postemergence foliar-applied herbicidal mixtures, direct seeded rice, ECHCO
Description: (§7) The soil matrix was contained in plastic pots with a volume of 1 quart and a surface area of 83.6 square centimeters (cm^2). […] The plants were grown for 8-22 days in a greenhouse with an approximate 14 h photoperiod which was maintained at about 29° C. during the day and 26° C. during the night. Nutrients (Peters Excel® 15-5-15 5-Ca 2-Mg and iron chelate) were applied in the irrigation solution as needed and water was added on a regular basis. Supplemental lighting was provided with overhead metal halide 1000-Watt lamps as necessary. The plants were employed for testing when they reached the first through fourth true leaf stage.
(§8) Treatments consisted of the acid or esters of 4-amino-3-chloro-5-fluoro-6-(4-chloro-2-fluoro-3-methoxy-phenyl)pyridine-2-carboxylic acid (Compound A), each formulated as an SC (suspension concentrate), and various herbicidal components alone and in combination. Forms of compound A were applied on an acid equivalent basis.
(§9) For treatments comprised of formulated compounds, measured amounts of compounds were placed individually in 25 mL glass vials and diluted in a volume of 1.25% (v/v) Agri-Dex® crop oil concentrated to obtain 12× stock solutions. […] Application solutions were prepared by adding an appropriate amount of each stock solution (e.g., 1 mL) and diluted to the appropriate final concentrations with the addition of 10 mL of an aqueous mixture of 1.25% (v/v) crop oil concentrate so that the final spray solutions contained 1.25+/−0.05% (v/v) crop oil concentrate.
(§10) All stock solutions and applications solutions were visually inspected for compound compatibility prior to application. Spray solutions were applied to the plant material with an overhead Mandel track sprayer equipped with a 8002E nozzles calibrated to deliver 187 L/ha over an application area of 0.503 m^2 at a spray height of 18 to 20 inches (46 to 50 cm) above average plant canopy height. Control plants were sprayed in the same manner with the solvent blank.
(§11) The treated plants and control plants were placed in a greenhouse as described above and watered by sub-irrigation to prevent wash-off of the test compounds. After approximately 3 weeks, the condition of the test plants as compared with that of the untreated plants was determined visually and scored on a scale of 0 to 100 percent where 0 corresponds to no injury or growth inhibition and 100 corresponds to complete kill.
(§12) Colby's equation was used to determine the herbicidal effects expected from the mixtures (Colby, S. R. 1967. Calculation of the synergistic and antagonistic response of herbicide combinations. Weeds 15:20-22).
(§13) The following equation was used to calculate the expected activity of mixtures containing two active ingredients, A and B: Expected=A+B−(A×B/100)
(§14) A=observed efficacy of active ingredient A at the same concentration as used in the mixture.
(§15) B=observed efficacy of active ingredient B at the same concentration as used in the mixture.

[9] = tested on: CYPRO; experiment: Example II: in-water applied herbicidal mixtures, weed control in transplanted paddy rice (greenhouse), CYPRO; type: in vivo, Cyperus rotundus (purple nutsedge); conditions: 22 DAA
Description: as §5, §6

[10] = tested on: ECHOR; experiment: Example II: in-water applied herbicidal mixtures, transplanted paddy rice, ECHOR; type: in vivo, Echinochloa oryzoides (early watergrass); conditions: Echinochloa oryzoides; for pest or weed control at 70 g/ha: 70 gae/ha; for pest or weed control at 140 g/ha: 140 gae/ha
Description: as §5, §6

[11] = tested on: SCPMA; experiment: Example II: in-water applied herbicidal mixtures, transplanted paddy rice, SCPMA; type: in vivo; conditions: 22 DAA
Description: as §5, §6

[12] = tested on: CASOB; experiment: Example V: postemergence herbicidal activity of mixtures in forage crops (greenhouse), CASOB; type: in vivo, Cassia obtusifolia (sicklepod); conditions: alone, 50 gae/ha, foliar, approximately 21 days
Description: as §3, §4

[13] = tested on: DIGSA; experiment: Example I: postemergence foliar-applied herbicidal mixtures, direct seeded rice, DIGSA
Description: as §7, §8, §9, §10, §11, §12, §13, §14, §15

[14] = tested on: ECHCG; experiment: Example I: postemergence foliar-applied herbicidal mixtures, direct seeded rice, ECHCG
[15] = tested on: CYPDI; experiment: Example I: postemergence foliar-applied herbicidal mixtures, direct seeded rice, CYPDI; type: in vivo, Cyperus difformis (smallflower umbrella sedge)
Description: as §7, §8, §9, §10, §11, §12
The following equation was used to calculate the expected activity of mixtures containing two active ingredients, A and B: Expected=A+B−(A×B/100) […]

[16] = tested on: LEFCH; experiment: Example I: postemergence foliar-applied herbicidal mixtures, direct seeded rice, LEFCH; type: in vivo, Leptochloa chinensis (Chinese sprangletop); conditions: 280 gae/ha
[17] = tested on: SCPJU; experiment: Example II: in-water applied herbicidal mixtures, transplanted paddy rice, SCPJU; type: in vivo, Schoenoplectus juncoides (Japanese bulrush); conditions: 25 DAA
Description: as §5, §6

[18] = tested on: LEFCH; experiment: Example II: in-water applied herbicidal mixtures, transplanted paddy rice, LEFCH; type: in vivo, Leptochloa chinensis (Chinese sprangletop); conditions: 25 DAA; 70 gae/ha
Description: as §5, §6

[19] = tested on: SINAR; experiment: Example V: postemergence herbicidal activity of mixtures in forage crops, SINAR; type: in vivo, Sinapis arvensis (wild mustard); conditions: alone, foliar, approximately 21 days
Description: as §3, §4

[20] = tested on: POLCO; experiment: Example IV: postemergence foliar-applied herbicidal mixtures, cereal crops, POLCO; type: in vivo, Polygonum convolvulus (wild buckwheat); conditions: alone, 35 gai/ha, foliar, 20-22 days
Description: as §1, §2

[21] = tested on: BRSNN; experiment: Example IV: postemergence foliar-applied herbicidal mixtures, cereal crops, BRSNN; type: in vivo, Brassica napus (volunteer canola); conditions: alone, 35 gai/ha, foliar, 20-22 days
Description: as §1, §2

[22] = 528 h, 22 DAA, read-out: Visual Weed Control (%) Obs
[23] = 70 gae/ha (Compound A Benzyl Ester rate not given)
[24] = 140 gae/ha (Compound A Benzyl Ester rate not given)
[25] = 456 h, read-out: Visual Weed Control (%) Obs, 19 DAA
[26] = 600 h, read-out: Visual Weed Control (%) Obs, 25 DAA

## O=C(O)c1nc(Cl)ccc1Cl [Clopyralid, 3,6-dichloro-2-pyridinecarboxylic acid]
[1]; 50 gai/ha
  AMARE Ob (observed value): 17%

## CCCCCCC(C)OC(=O)COc1nc(F)c(Cl)c(N)c1Cl (stereo not drawn) [Fluroxypyr ME]
[2]; 35 gae/ha
  TRFRE Obs (observed value): 15%
[2]; 70 gae/ha
  TRFRE Obs (observed value): 20%
[3]; 35 gae/ha
  SONAR Obs (observed value): 0%
[3]; 70 gae/ha
  SONAR Obs (observed value): 15%
[4]; 35 gae/ha
  CENMA Obs (observed value): 0%
[4]; 70 gae/ha
  CENMA Obs (observed value): 0%
[5]; 70 gae/ha
  CIRAR Obs (observed value): 10%
[6]; 70 gae/ha
  SOOSS Obs (observed value): 50%

## CCCCOCCOC(=O)COc1nc(Cl)c(Cl)cc1Cl [Triclopyr Butotyl Ester, 2-butoxyethyl 2-[(3,5,6-trichloro-2-pyridinyl)oxy]acetate, reference compound]
[7]; 22 DAA, 70 gae/ha
  Visual Weed Control (%) Obs: 0%
[7]; 22 DAA, 140 gae/ha
  Visual Weed Control (%) Obs: 0%
[8]; 70 gae/ha
  Visual Weed Control (%) - 23 DAA ECHCO Obs: 0%
[8]; 140 gae/ha
  Visual Weed Control (%) - 23 DAA ECHCO Obs: 0%
[3]; 35 gae/ha
  SONAR Obs (observed value): 60%
[3]; 70 gae/ha
  SONAR Obs (observed value): 60%
[9]; 70 gae/ha
  Visual Weed Control (%) Obs: 0%
[9]; 140 gae/ha
  Visual Weed Control (%) Obs: 40%
[4]; 35 gae/ha
  CENMA Obs (observed value): 30%
[4]; 70 gae/ha
  CENMA Obs (observed value): 45%
[10]; [22]
  pest or weed control at 70 g/ha: 0%
  pest or weed control at 140 g/ha: 0%
[11]; 70 gae/ha
  Visual Weed Control (%) Obs: 50%
[11]; 140 gae/ha
  Visual Weed Control (%) Obs: 60%
[5]; 70 gae/ha
  CIRAR Obs (observed value): 40%
[12]
  CASOB Obs (observed value): 18%
[13]; 35 gae/ha
  Visual Weed Control (%) - 23 DAA DIGSA Obs: 0%
[13]; 70 gae/ha
  Visual Weed Control (%) - 23 DAA DIGSA Obs: 0%
[13]; 140 gae/ha
  Visual Weed Control (%) - 23 DAA DIGSA Obs: 0%
[14]; 35 gae/ha
  Visual Weed Control (%) - 23 DAA ECHCG Obs: 0%
[14]; 70 gae/ha
  Visual Weed Control (%) - 23 DAA ECHCG Obs: 0%
[14]; 140 gae/ha
  Visual Weed Control (%) - 23 DAA ECHCG Obs: 15%

## CCCCCCC(C)OC(=O)COc1nc(F)c(Cl)c(N)c1Cl (stereo not drawn) [Fluroxypyr MHE, 1-methylheptyl 2-[(4-amino-3,5-dichloro-6-fluoro-2-pyridinyl)oxy]acetate, reference compound]
[7]; 19 DAA, 70 gae/ha
  Visual Weed Control (%) Obs: 0%
[7]; 19 DAA, 140 gae/ha
  Visual Weed Control (%) Obs: 0%
[7]; 19 DAA, 280 gae/ha
  Visual Weed Control (%) Obs: 0%
[7]; 25 DAA, 140 gae/ha
  Visual Weed Control (%) Obs: 0%
[8]; 70 gae/ha
  Visual Weed Control (%) - 21 DAA ECHCO Obs: 0%
[8]; [23]
  Visual Weed Control (%) - 21 DAA ECHCO Obs: 0%
[8]; 140 gae/ha
  Visual Weed Control (%) - 21 DAA ECHCO Obs: 0%
[8]; [24]
  Visual Weed Control (%) - 21 DAA ECHCO Obs: 0%
[10]; [25]
  pest or weed control at 70 g/ha: 0%
  pest or weed control at 140 g/ha: 0%
[10]; [26]
  pest or weed control at 70 g/ha: 0%
  pest or weed control at 140 g/ha: 0%
[15]; 70 gae/ha
  Visual Weed Control (%) - 21 DAA CYPDI Obs: 15%
[15]; 140 gae/ha
  Visual Weed Control (%) - 21 DAA CYPDI Obs: 80%
[16]
  Visual Weed Control (%) - 19 DAA LEFCH Obs: 28%
[17]; 70 gae/ha
  Visual Weed Control (%) Obs: 20%
[17]; 140 gae/ha
  Visual Weed Control (%) Obs: 30%
[11]; 149 gae/ha
  Visual Weed Control (%) Obs: 30%
[18]
  Visual Injury (%) Obs: 20%
  Visual Weed Control (%) Obs: 20%
[14]; 70 gae/ha
  Visual Weed Control (%) - 21 DAA ECHCG Obs: 0%
[14]; [23]
  Visual Weed Control (%) - 21 DAA ECHCG Obs: 0%
[14]; 140 gae/ha
  Visual Weed Control (%) - 21 DAA ECHCG Obs: 0%
[14]; [24]
  Visual Weed Control (%) - 21 DAA ECHCG Obs: 0%
[14]; 280 gae/ha
  Visual Weed Control (%) - 19 DAA ECHCG Obs: 25%

## Nc1cc(Cl)nc(C(=O)O)c1Cl [Aminopyralid TIPA salt, 4-amino-3,6-dichloropyridine-2-carboxylic acid compound with 1,1′,1″-nitrilotris[2-propanol], reference compound]
[2]; 17.5 gae/ha
  TRFRE Obs (observed value): 35%
[19]; 17.5 gae/ha
  SINAR Obs (observed value): 25%
[19]; 35 gae/ha
  SINAR Obs (observed value): 45%
[5]; 17.5 gae/ha
  CIRAR Obs (observed value): 45%
[6]; 17.5 gae/ha
  SOOSS Obs (observed value): 45%

## O=C(O)c1nc(Cl)ccc1Cl [Clopyralid MEA salt, 3,6-dichloro-2-pyridinecarboxylic acid with 2-aminoethanol, reference compound]
[5]; 35 gae/ha
  CIRAR Obs (observed value): 75%
[6]; 35 gae/ha
  SOOSS Obs (observed value): 25%

## COc1c(Cl)ccc(Cl)c1C(=O)O [Dicamba, 3,6-dichloro-2-methoxybenzoic acid]
[20]
  POLCO Ob (observed value): 13%
[21]
  BRSNN Ob (observed value): 8%
[1]; 35 gai/ha
  AMARE Ob (observed value): 53%
